In patent US20230192617A1, “AZABICYCLIC(THIO)AMIDES AS FUNGICIDAL COMPOUNDS” (Bayer CropScience Aktiengesellschaft, priority 2020, published 2023) one finds pest or weed control, inhibition and chromatographic logP data, which are given here for 15 molecules.

One data set has as its system Alternaria brassicae. Nature of the data set: In vivo preventive test on Alternaria brassicae (leaf spot on radish or cabbage). The note with it: 500 ppm of active ingredient, preventive spray on radish or cabbage, evaluated 3 to 4 days after inoculation, read-out: efficacy. Put shortly: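 Protective spray on young radish or cabbage: actives in water diluted from DMSO/acetone/Tween 80, with solvent-only controls. Leaves were challenged after 24 h with a spore suspension, and plants were held at 100% RH, 20 °C for 3 to 4 days.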

In data set [1] the test system is Botrytis cinerea. Put plainly: In vivo preventive test on Botrytis cinerea (grey mould). The note with it: 500 ppm of active ingredient, preventive spray on gherkin or cabbage, evaluated 4 to 5 days after inoculation, read-out: efficacy. Put shortly:
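Preventive spray on cabbage or gherkin seedlings, with compound formulated in DMSO/acetone/Tween 80 and water-diluted, preceded spore inoculation by 24 hours. Cabbage was held 4 to 5 days at 20° C., 100% relative humidity; gherkin 4 to 5 days at 17° C., 90% relative humidity.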

The subject of data set [2] is Botrytis cinerea. Put plainly: B-11. Botrytis cinerea in vitro cell test. The note with it: 144 h, 20 ppm of active ingredient, 6 days incubation, liquid culture, absorbance, read-out: efficacy (inhibition of fungal growth). It counts as cell-based. An outline of the steps: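 B. cinerea spores were grown in liquid culture with compound (DMSO ≤1% final). Mycelium growth was measured spectrometrically after 6 days, with inhibition taken as absorbance relative to untreated control wells.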

Data set [3] deals with Pyrenophora teres. Put plainly: In vivo preventive test on Pyrenophora teres (net blotch on barley). The conditions noted are these: 240 h, 500 ppm of active ingredient, preventive spray on barley, evaluated 10 days after inoculation, read-out: efficacy. Here is the method:
B-3. In Vivo Preventive Test on Pyrenophora Teres (Net Blotch on Barley) [table] The active ingredients were made soluble and homogenized in a mixture of Dimethyl sulfoxide/Acetone/Tween® 80 and then diluted in water to the desired concentration. The young plants of barley were treated by spraying the active ingredient prepared as described above. Control plants were treated only with an aqueous solution of Acetone/Dimethyl sulfoxide/Tween® 80. After 24 hours, the plants were contaminated by spraying the leaves with an aqueous suspension of Pyrenophora teres spores. The contaminated barley plants were incubated for 48 hours at 20° C. and at 100% relative humidity and then for 8 days at 20° C. and at 70-80% relative humidity.

Another data set has as its system Alternaria alternata. Put plainly: Alternaria alternata in vitro cell test. It counts as cell-based. The note with it: 120 h, 20 ppm of active ingredient, liquid culture, 5 days incubation, spectrometric measurement of mycelium growth, read-out: efficacy (inhibition of fungal growth). An outline of the steps:
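Spectrometric readout of mycelial growth after 5-day incubation gauged compound effects on spore germination and growth of A. alternata in liquid medium. Compounds were delivered in DMSO at ≤1% final. Absorbance was compared with untreated controls to give inhibition.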

Data set [4] relates to Colletotrichum lindemuthianum. Nature of the data set: B-8. Colletotrichum lindemuthianum in vitro cell test. It counts as cell-based. The conditions noted are these: 144 h, 20 ppm of active ingredient, 6 days incubation, liquid culture, absorbance, read-out: efficacy (inhibition of fungal growth). An outline of the steps:
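Liquid-culture germination/growth test: compounds in ≤1% final DMSO were added to spore-containing medium. Fungal growth was quantified spectrophotometrically after 6 days of incubation and expressed as inhibition versus untreated controls.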

A short description of data set [5]: Measurement of Log P values by HPLC on reversed phase columns (EEC directive 79/831 Annex V.A8). The note with it: reversed phase HPLC column, method [a]: LC-UV, acidic range, 0.1% formic acid in water and acetonitrile as eluent. It counts as physicochemical. An outline of the steps: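 Log P derived from retention on reversed-phase columns (EEC directive 79/831 Annex V.A8), LC-UV, acetonitrile gradient 10% to 95% against water containing 0.1% formic acid, 0.001 M ammonium acetate, or 0.1% phosphoric acid; several values per method separated by "+".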

For another data set, the system named is Sphaerotheca fuliginea. Nature of the data set: In vivo preventive test on Sphaerotheca fuliginea (powdery mildew on cucurbits). The conditions noted are these: Podosphaera fuliginea, 192 h; 500 ppm of active ingredient; preventive spray on gherkin; evaluated 8 days after inoculation; read-out: efficacy. An outline of the steps:
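This is a preventive spray test on gherkin seedlings, with compound formulated in DMSO/acetone/Tween 80 in water and solvent-only controls. Spore inoculation followed one day after treatment. Incubation lasted 8 days at 20 °C, 70–80% RH.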

The test system of data set [6] is Colletotrichum lindemuthianum. Nature of the data set: In vivo preventive test on Colletotrichum lindemuthianum (leaf spot on bean). The note with it: 168 h, 500 ppm of active ingredient, preventive spray on bean, evaluated 7 days after inoculation, read-out: efficacy. Here is the method:
B-5. In Vivo Preventive Test on Colletotrichum lindemuthianum (Leaf Spot on Bean) [table] The active ingredients were made soluble and homogenized in a mixture of Dimethyl sulfoxide/Acetone/Tween® 80 and then diluted in water to the desired concentration. The young plants of bean were treated by spraying the active ingredient prepared as described above. Control plants were treated only with an aqueous solution of Acetone/Dimethyl sulfoxide/Tween® 80. After 24 hours, the plants were contaminated by spraying the leaves with an aqueous suspension of Colletotrichum lindemuthianum spores. The contaminated bean plants were incubated for 24 hours at 20° C. and at 100% relative humidity and then for 6 days at 20° C. and at 90% relative humidity.

For data set [7], the system named is Pyrenophora teres. Nature of the data set: B-10. Pyrenophora teres in vitro cell test. Type of data set: cell-based. The note with it: 144 h, 20 ppm of active ingredient, 6 days incubation, liquid culture, absorbance, read-out: efficacy (inhibition of fungal growth). An outline of the steps:
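Liquid-culture assay on a P. teres spore suspension with compounds added to the medium from DMSO solutions, final DMSO ≤1%. Mycelium growth read spectrometrically after 6 days. Inhibition calculated from absorbance against untreated control wells.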

The term inhibition denotes the share of the control response that was lost under treatment. Broadly, the chromatographic logP is lipophilicity estimated from chromatographic retention. A high value points to a more lipophilic compound. As to `C=Cc1ccc(C(F)(F)CNC(=O)c2c(Oc3cccc(C(F)(F)F)c3)nnc3ccccc23)c(Cl)c1` [I-064], the pest or weed control at 500 ppm was in the range of 90 to 100% with Alternaria brassicae, 90 to 100% in the data set on Botrytis cinerea [1] and 80 to 89% in the data set with Pyrenophora teres [3]. For the same molecule, the inhibition at 20 ppm (with Botrytis cinerea [2]; in the data set with Alternaria alternata; in data set [4]) was 90 to 100% in each case. Moreover, the chromatographic logP in data set [5] was determined as 4.62.
With `Cc1ccc([C@@H](F)CNC(=O)c2c(Oc3cccc(Cl)c3)nnc3ccccc23)c(Cl)c1` (racemic) [I-052], the pest or weed control at 500 ppm (in the data set with Sphaerotheca fuliginea; in the data set on Alternaria brassicae; in the data set on Botrytis cinerea [1]; in [6]) was 90 to 100% in each case. Also, the inhibition at 20 ppm (with Botrytis cinerea [2]; in the data set on Alternaria alternata; in data set [4]) was 90 to 100% each time. The molecule further came in with a chromatographic logP in data set [5] of 4.19.
In the case of `Cc1ccc(CCNC(=O)c2c(Oc3cccc(C(F)(F)F)c3)nnc3ccsc23)c(C)c1` [I-231], the pest or weed control at 500 ppm fell in the range of 90 to 100% in the data set with Sphaerotheca fuliginea, 90 to 100% with Alternaria brassicae and 70 to 79% with Pyrenophora teres [3]. Besides, the inhibition at 20 ppm in the data set on Botrytis cinerea [2] was in the range of 80 to 89%. For the same molecule, the chromatographic logP in data set [5] was found to be 4.77.
`Cc1ccc(C(F)(F)CNC(=O)c2c(Oc3cccc(C(F)(F)F)c3)nnc3c2CC(O)CC3)c(C)c1` (centres unmarked) [I-117]: the pest or weed control at 500 ppm with Sphaerotheca fuliginea lay within 90 to 100%; in the data set with Alternaria brassicae, 70 to 79%; in the data set on Botrytis cinerea [1], 90 to 100%; in [6], 90 to 100%. For the same molecule, the inhibition at 20 ppm (in the data set with Botrytis cinerea [2]; in the data set on Alternaria alternata; in data set [4]) was 90 to 100% in each case. Further, in data set [5], the chromatographic logP was found to be 3.18.
In the case of `Cc1ccc(CCNC(=O)c2c(Oc3cccc(C(F)(F)F)c3)nnc3ccccc23)c(C)c1` [I-230], the pest or weed control at 500 ppm was 90 to 100% in the data set with Sphaerotheca fuliginea, 90 to 100% with Alternaria brassicae, 90 to 100% in the data set with Botrytis cinerea [1] and 80 to 89% with Pyrenophora teres [3]. Moreover, the inhibition at 20 ppm (in the data set on Botrytis cinerea [2]; in the data set with Alternaria alternata; in data set [4]) was 90 to 100% throughout.
As for `Cc1ccc(C(F)(F)CNC(=O)c2c(Oc3cccc(C(F)(F)F)c3)nnc3cnccc23)c(C)c1` [I-162], the pest or weed control at 500 ppm in the data set on Alternaria brassicae lay in the range of 90 to 100%; in the data set with Pyrenophora teres [3], 70 to 79%. Moreover, the inhibition at 20 ppm (with Botrytis cinerea [2]; in the data set on Pyrenophora teres [7]; with Alternaria alternata; in data set [4]) was 90 to 100% each time. In addition, the chromatographic logP in [5] turned out to be 4.15.
As to `Cc1ccc2c(C(=O)NC[C@H](F)c3ccc(Cl)cc3Cl)c(Oc3cccc(C(F)(F)F)c3)nnc2c1` (racemic) [I-047], the pest or weed control at 500 ppm in the data set on Sphaerotheca fuliginea was in the range of 90 to 100%; in the data set on Alternaria brassicae, 90 to 100%; in the data set with Botrytis cinerea [1] it was 90 to 100%; in the data set with Pyrenophora teres [3], 80 to 89%. For the same molecule, the inhibition at 20 ppm (in the data set on Alternaria alternata; in data set [4]) was 90 to 100% each time. Further, the chromatographic logP in data set [5] is 4.45.
With `Cc1ccc(C(F)(F)CNC(=O)c2c(Oc3cccc(C(F)(F)F)c3)nnc3cc(F)ccc23)c(Cl)c1` [I-171], the pest or weed control at 500 ppm was in the range of 90 to 100% in the data set on Alternaria brassicae and 70 to 79% in the data set with Pyrenophora teres [3]. The inhibition at 20 ppm (in the data set on Botrytis cinerea [2]; in the data set on Pyrenophora teres [7]; with Alternaria alternata; in [4]) was 90 to 100% throughout. In [5], this molecule registered a chromatographic logP of 4.66.
As to `Cc1cccc(Oc2nnc3ccccc3c2C(=O)NCC(F)(F)c2ccc(C)cc2C)c1` [I-017], the pest or weed control at 500 ppm was in the range of 90 to 100% with Sphaerotheca fuliginea, 90 to 100% with Alternaria brassicae, 90 to 100% with Botrytis cinerea [1] and 70 to 79% in the data set with Pyrenophora teres [3]. For the same molecule, the inhibition at 20 ppm (in the data set with Alternaria alternata; in data set [4]) was 90 to 100% in each case. The chromatographic logP in data set [5] is 4.11.
Take `Cc1ccc([C@@H](F)CNC(=O)c2c(Oc3cccc(C(F)(F)F)c3)cnc3ccccc23)c(Cl)c1` (racemic) [I-060]: the pest or weed control at 500 ppm (in the data set on Sphaerotheca fuliginea; in the data set on Alternaria brassicae; in the data set on Botrytis cinerea [1]; in data set [6]) was 90 to 100% each time. Also, the inhibition at 20 ppm (with Botrytis cinerea [2]; in the data set on Alternaria alternata; in data set [4]) was 90 to 100% throughout. Besides, the chromatographic logP in [5] was 4.4.
As to `Cc1cc(C(F)F)ccc1[C@@H](F)CNC(=O)c1c(Oc2cccc(Cl)c2)nnc2ccccc12` (racemic) [I-049], the pest or weed control at 500 ppm is 90 to 100% with Alternaria brassicae, 90 to 100% in the data set on Botrytis cinerea [1] and 80 to 89% in the data set on Pyrenophora teres [3]. The inhibition at 20 ppm (in the data set on Botrytis cinerea [2]; in the data set with Alternaria alternata; in data set [4]) was 90 to 100% throughout. The molecule also registered a chromatographic logP in data set [5] of 3.84.
Turning to `Cc1cccc(Oc2nnc3ccccc3c2C(=O)NCC(F)(F)c2ccc(Cl)cc2)c1` [I-014], the pest or weed control at 500 ppm with Sphaerotheca fuliginea fell in the range of 90 to 100%; in the data set with Alternaria brassicae, 90 to 100%; in the data set with Botrytis cinerea [1], 90 to 100%; with Pyrenophora teres [3], 70 to 79%. Moreover, the inhibition at 20 ppm (in the data set on Alternaria alternata; in data set [4]) was 90 to 100% throughout. The same molecule gave a chromatographic logP in data set [5] of 3.87.
Regarding `Cc1cccc(Oc2nnc3ccccc3c2C(=O)NCC(F)(F)c2ccc(Br)cc2Cl)c1` [I-015], the pest or weed control at 500 ppm in the data set on Sphaerotheca fuliginea lay in the range of 90 to 100%; in the data set with Alternaria brassicae it was 90 to 100%; in the data set on Botrytis cinerea [1], 90 to 100%; with Pyrenophora teres [3], 70 to 79%. Moreover, the inhibition at 20 ppm (with Alternaria alternata; in [4]) was 90 to 100% in each case. This molecule displayed a chromatographic logP in data set [5] of 4.37.
As to `CCN(CCc1ccccc1)C(=O)c1c(Oc2cccc(C(F)(F)F)c2)nnc2ccccc12` [I-205], the figures for the pest or weed control at 500 ppm in the data set on Sphaerotheca fuliginea, in the data set on Botrytis cinerea [1] and in the data set on Pyrenophora teres [3] were 70 to 79%, 80 to 89% and 80 to 89%, respectively. In [5], the chromatographic logP is 4.28.
For the molecule `Cc1cc(Cl)ccc1[C@@H](F)CNC(=O)c1c(Oc2cccc(C(F)(F)F)c2)cnc2ccccc12` (racemic) [I-061], the pest or weed control at 500 ppm was in the range of 90 to 100% with Sphaerotheca fuliginea, 90 to 100% with Alternaria brassicae, 90 to 100% in the data set with Botrytis cinerea [1] and 70 to 79% in data set [6]. The inhibition at 20 ppm (in the data set on Botrytis cinerea [2]; with Alternaria alternata; in [4]) was 90 to 100% throughout. The chromatographic logP in [5] came out at 4.47.
